# Assay results as given in patent US20250353819A1, “ARYL HYDANTOIN COMPOUNDS AND METHODS OF USE” (priority 2022, published 2025).
# Several values for one entry are separate records, joined by “and”; a condition that tells them apart may be missing. Identical values can stand only once. Like-named read-outs stand apart in the source and are kept apart here.
# How the values were obtained:
# [1] = Pharmacokinetics in male Sprague Dawley rats; format: in vivo, rat; settings: for half-life: plasma; for Plasma Concentration: oral 1 mg/kg
# Protocol: IV and oral formulations were prepared using the same method. On the day of dosing the solid compound was dissolved in DMSO prior to addition of a saline solution (0.9% w/v). The samples were then mixed using vortexing producing colourless solutions. The IV formulation was filtered through a 0.22 μm syringe filter prior to dosing and the oral formulation was dosed without filtration.
# Samples of arterial blood were collected up to 168 h post-dose. Urine samples were not collected as animals were housed in bedded cages. Arterial blood was collected directly into borosilicate vials (at 4° C.) containing heparin as anticoagulant. Once collected, blood samples were centrifuged, supernatant plasma was removed and stored frozen (−80° C.) until analysis by LC-MS. A summary of the bioanalytical method and assay validation details is included in Tables 14 and 15.
# Plasma concentration versus time data were analysed using non-compartmental methods (PKSolver Version 2.0). Standard calculations for each pharmacokinetic parameter are listed below.
# [2] = Mouse exposure / pharmacokinetic studies; format: in vivo, mice
# [3] = rats, IV 1 mg/kg, individual rats
# [4] = rats, PO 1 mg/kg, individual rats
smiles,measurement,setting,value
"CC1(C)NC(=O)N(c2ccc(F)c(C(C)(F)F)c2)C1=O [Compound IC, 3-(3-(1,1-difluoroethyl)-4-fluorophenyl)-5,5-dimethylimidazolidine-2,4-dione]",Cmax,"[1]; male, Sprague Dawley, rat, in vivo, po, 1 mg/kg, rats, PO 1 mg/kg, mean (n = 3), read-out: Plasma Cmax",572 ng/mL
same,Tmax,"[1]; male, Sprague Dawley, rat, in vivo, po, 1 mg/kg, rats, PO 1 mg/kg, mean (n = 3), read-out: Tmax",6.7 h
same,half-life,"[1]; male, Sprague Dawley, rat, iv, 1 mg/kg, rats, IV 1 mg/kg, individual rats, read-out: Apparent t1/2 (converted)",13 h
same,half-life,"[1]; male, Sprague Dawley, rat, iv, 1 mg/kg, rats, IV 1 mg/kg, mean (n = 3), read-out: Apparent t1/2 (converted)",15 h
same,half-life,"[1]; male, Sprague Dawley, rat, other: IV and oral, 1 mg/kg, rats, following IV and oral administration 1 mg/kg, read-out: apparent half-life",13 to 19 h
same,half-life,"[1]; male, Sprague Dawley, rat, po, 1 mg/kg, rats, PO 1 mg/kg, individual rats, read-out: Apparent t1/2 (converted)",16 h
same,half-life,"[1]; male, Sprague Dawley, rat, po, 1 mg/kg, rats, PO 1 mg/kg, mean (n = 3), read-out: Apparent t1/2 (converted)",16 h
same,Plasma Concentration,"[1]; 1.00 h, individual rats",614 ng/mL and 430 ng/mL and 184 ng/mL
same,Plasma Concentration,"[1]; 1.00 h, mean",409 ng/mL
same,Plasma Concentration,"[1]; 2.00 h, individual rats",612 ng/mL and 506 ng/mL and 427 ng/mL
same,Plasma Concentration,"[1]; 2.00 h, mean",515 ng/mL
same,Plasma Concentration,"[1]; 4.00 h, individual rats",545 ng/mL and 477 ng/mL and 474 ng/mL
same,Plasma Concentration,"[1]; 4.00 h, mean",499 ng/mL
same,Plasma Concentration,"[1]; 7.00 h, individual rats",612 ng/mL and 559 ng/mL and 455 ng/mL
same,Plasma Concentration,"[1]; 7.00 h, mean",542 ng/mL
same,Plasma Concentration,"[1]; 24.00 h, individual rats",365 ng/mL and 309 ng/mL and 390 ng/mL
same,Plasma Concentration,"[1]; 24.00 h, mean",355 ng/mL
same,Plasma Concentration,"[1]; 36.00 h, individual rats",294 ng/mL and 183 ng/mL and 254 ng/mL
same,Plasma Concentration,"[1]; 36.00 h, mean",243 ng/mL
same,Plasma Concentration,"[1]; 48.00 h, individual rats",188 ng/mL and 94 ng/mL and 170 ng/mL
same,Plasma Concentration,"[1]; 48.00 h, mean",151 ng/mL
same,Plasma Concentration,"[1]; 72.00 h, individual rats",82.4 ng/mL and 58.1 ng/mL and 31.5 ng/mL
same,Plasma Concentration,"[1]; 72.00 h, mean",57 ng/mL
same,Plasma Concentration,"[1]; 96.00 h, individual rats",32.0 ng/mL and 5.1 ng/mL and 28.5 ng/mL
same,Plasma Concentration,"[1]; 96.00 h, mean",21.8 ng/mL
same,Plasma Concentration,"[1]; 144.00 h, individual rats",2.9 ng/mL and 4.4 ng/mL
same,Plasma Concentration,"[1]; 144.00 h, mean",3.7 ng/mL
same,adverse reactions or compound-related side effects,"[1]; rats, 7-day sampling period after IV or oral 1 mg/kg",no adverse reactions or compound-related side effects
same,Apparent t1/2,[1]; [3],14 h
same,Blood CL,[1]; [3],0.589 mL/min/kg and 0.808 mL/min/kg
same,Blood Vss,[1]; [3],0.991 L/kg and 1.19 L/kg
same,Plasma AUCIV,[1]; [3],23.6 µg·h/mL and 17.2 µg·h/mL
same,Plasma CL,[1]; [3],0.707 mL/min/kg and 0.970 mL/min/kg
same,Plasma Vss,[1]; [3],1.19 L/kg and 1.43 L/kg
same,Apparent t1/2,"[1]; rats, IV 1 mg/kg, mean (n = 3)",15 h
same,Plasma AUCIV,"[1]; rats, IV 1 mg/kg, mean (n = 3)",20.6 µg·h/mL
same,time for which measurable plasma concentrations were observed,"[1]; rats, IV and oral 1 mg/kg",up to 6 days
same,Apparent t1/2,[1]; [4],13 h and 19 h
same,BA,[1]; [4],113% and 85.5% and 99.2%
same,Plasma AUCoral,[1]; [4],17.6 µg·h/mL
same,Plasma Cmax,[1]; [4],559 ng/mL and 543 ng/mL
same,Tmax,[1]; [4],1.0 h and 7.0 h and 12 h
same,Apparent t1/2,"[1]; rats, PO 1 mg/kg, mean (n = 3)",16 h
same,Plasma Cmax,"[1]; rats, PO 1 mg/kg, mean (n = 3)",572 ng/mL
same,clearance,"[2]; male, Swiss outbred, mouse, in vivo, iv, 1 mg/kg, mice, IV, mean dose 1.0 mg/kg, read-out: Plasma CL",1.96 mL/min/kg
same,AUC(0-t),"[2]; male, Swiss outbred, mouse, in vivo, 100 mg/kg PO in mice, read-out: AUC0-last",1560 µg·h/mL
same,Cmax,"[2]; male, Swiss outbred, mouse, in vivo, 100 mg/kg PO in mice, read-out: Cmax",40000 ng/mL
same,AUC(0-t),"[2]; male, Swiss outbred, mouse, in vivo, mice, IV, mean dose 1.0 mg/kg, read-out: Plasma AUC0-48 h",8.48 µg·h/mL
same,AUC(0-inf),"[2]; male, Swiss outbred, mouse, in vivo, mice, IV, mean dose 1.0 mg/kg, read-out: Plasma AUC0-inf",8.52 µg·h/mL
same,half-life,"[2]; male, Swiss outbred, mouse, plasma, mice, IV, mean dose 1.0 mg/kg, read-out: Apparent t1/2 (converted)",8.9 h
same,PlasmaVSS,"[2]; mice, IV, mean dose 1.0 mg/kg",1.64 L/kg
